Reference: patent US9700572B2, “Anti-cancer agent” (priority 2012, dated 2017)

Experiments:
[1] = cited from earlier work
[2] = system: human pancreas cancer cell line PSN-1; assay: Test Example 6: antitumor evaluation in tumor model animal (PSN-1 Xenografts); format: in vivo, nude mouse; details: 50 μg per mouse orally five times a week; one month; FIG. 5
Procedure: (§1) The model animal of a tumor was made by seeding human pancreas cancer cell line CAPAN-1 or PSN-1 in subcutis of back of a nude mouse (BALB-cAJnu/nu; CLEA Japan, Inc.) as a donor and transplanting the tumor mass of the provided donor mouse into subcutis of back of a recipient mouse, Arctigenin (AG), arctiin (A) and the burdock fruit extract (Example 12) were dissolved in DMSO in concentration of 10 mg/ml, diluted with a saline, and then administered orally in stomach at 50 μg per one mouse five times a week. The anticancerous was evaluated by measuring the size of the subcutaneous tumor mass of the back with time.

[3] = system: pancreas cancer cell PANC-1; assay: Test Example 8: PI staining (dead cell staining), FACS; format: cell-based, human; details: 3 μM arctigenin
Procedure: (§2) For preparation of the glucose-containing medium, 4.75 g of Dulbecco's modified Eagle medium 2 (Nissui Pharmaceutical) was dissolved in water, added by 12.5 ml of 1M HEPES pH 7.4 (DOJINDO LABORATORIES, 342-01375), sterilized, added by 18.5 ml of 10% NAHCO3, 10 ml of L-glutamine (Sigma-Aldrich), 5 ml of Anti-Anti (Life technologies), 5 ml of MEM NON-ESSENTIAL AMINO ACID SOLUTION (Sigma-Aldrich) and 50 ml of FETAL BOVINE SERUM (Biowest) that was inactivated in a warm bath at 56° C. for 30 minutes, and finally filled up to 500 ml. The glucose inhibition medium was prepared by adding 2-Deoxy-Glucose (2-DG) (Tokyo Chemical Industry) in 20 mM of final concentration to the glucose-containing medium. The medium containing 3 μM arctigenin was prepared by adding arctigenin ([…] Pharmaceutical) in 3 μM of final concentration to the glucose-containing medium or the glucose inhibition medium. For preparation of FACS buffer, 10 g of Bovine serum albumin Protease free (Wako Pure Chemical industries) was dissolved in 1 L of PBS (-), added by sodium azide in 0.1% of final concentration and performed filtration sterilization. The pancreas cancer cell PANC-1 (ATCC No CRL-1469 was seeded in a glucose-containing medium, incubated overnight and then incubated in each of the glucose-containing medium, the glucose inhibition medium, the glucose-containing medium containing 3 μM arctigenin and the glucose inhibition medium containing 3 μM arctigenin for 24 hours. After collected cells, PI staining (dead cell staining) and cancer stem cell marker staining were carried out according to the usual method and an Analysis was carried out using flow cytometry (FACS). For a marker, triple positive of CD44, CD24 and ESA (CD326) or double positive of CD44 positive and c-Met strong positive which were reported as a stem cell marker of pancreas cancer were used.

[4] = system: CD44+ESA+CD24+ pancreas cancer stem cell (Capan-1); assay: Test Example 9: cancer stem cell marker staining (CD44, CD24, ESA), FACS; format: cell-based, human
Procedure: (§3) For preparation of the glucose-containing medium, 4.75 g of Dulbecco's modified Eagle medium 2 (Nissui Pharmaceutical) was dissolved in water, added by 12.5 ml of 1M HEPES pH 7.4 (DOJINDO LABORATORIES, 342-01375), sterilized, added by 18.5 ml of 10% NAHCO3, 10 ml of L-glutamine (Sigma-Aldrich), 5 ml of Anti-Anti (Life technologies), 5 ml of MEM NON-ESSENTIAL AMINO ACID SOLUTION (Sigma-Aldrich) and 50 ml of FETAL BOVINE SERUM (Biowest) that was inactivated in a warm bath at 56° C. for 30 minutes, and finally filled up to 500 ml. The glucose inhibition medium was prepared by adding 2-Deoxy-Glucose (2-DG) (Tokyo Chemical industry) in 15 mM of final concentration to the glucose-containing medium. The medium containing 4 μM arctigenin was prepared by adding arctigenin ([…] Pharmaceutical) in 4 μM of final concentration to the glucose-containing medium or the glucose inhibition medium. The pancreas cancer cell Capan-1 (ATCC No. HTB-79) was seeded in a glucose-containing medium, incubated overnight and then incubated in each of a glucose-containing medium, a glucose inhibition medium, a glucose-containing medium containing 4 μM arctigenin and a glucose inhibition medium containing 4 μM arctigenin, or in 7 μM cisplatin (CDDP: Wako Pure Chemical Industries) for 24 hours. After collected cells, PI staining (dead cell staining) and cancer stem cell marker staining were carried out according to the usual method and an Analysis was carried out using flow cytometry (FACS). For the marker, triple positive of CD44, CD24 and ESA (CD326) which was reported as a stern cell marker of pancreas cancer was used.

[5] = system: human pancreas cancer cell line CAPAN-1; assay: Test Example 6: antitumor evaluation in tumor model animal (CAPAN-1 Xenografts); format: in vivo, nude mouse; details: 50 μg per mouse orally five times a week; one month; FIG. 4
Procedure: as §1

[6] = system: pancreas cancer cell Capan-1; assay: Test Example 9: PI staining (dead cell staining), FACS; format: cell-based, human; details: 24 hours
Procedure: as §3

[7] = system: pancreas cancer cell line PANC-1; details: PANC-1 screening; cited from earlier work
[8] = system: CD44+ESA+CD24+ pancreas cancer stem cell (PANC-1); assay: Test Example 8: cancer stem cell marker staining (CD44, CD24, ESA), FACS; format: cell-based, human; details: 3 μM arctigenin
Procedure: as §2, with “sterilization. For the fluorescence-labeled antibody for FACS assays, CD44 (338803 or 338807, BioLegend), CD24 (311117, BioLegend), ESA (324205, BioLegend) and c-[…]-8858, eBioscience) were used. In addition, a staining step was carried out according to the attached data sheet to the product.” for “sterilization.”

[9] = system: CD44+,c-MetHigh pancreas cancer stem cell (PANC-1); assay: Test Example 8: cancer stem cell marker staining (CD44, c-Met), FACS; format: cell-based, human; details: 3 μM arctigenin
Procedure: as §2, with “sterilization. For the fluorescence-labeled antibody for FACS assays, CD44 (338803 or 338807, BioLegend), CD24 (311117, BioLegend), ESA (324205, BioLegend) and c-[…]-8858, eBioscience) were used. In addition, a staining step was carried out according to the attached data sheet to the product.” for “sterilization.”

For `COc1cc(C[C@H]2C(=O)OC[C@@H]2Cc2ccc(OC)c(OC)c2)ccc1O` [arctigenin], the solubility in water [1] is given as “hardly soluble”, the “antitumor effect (size of subcutaneous tumor mass)” value [2] is given as “antitumor effect was also obtained” and the “cellular survival rate (PI staining)” value ([3]; glucose inhibition condition (20 mM 2-DG), 24 hours, FIG. 6, without arctigenin 68.53%) is given as 35.71%. The “cellular survival rate (PI staining)” value ([3]; glucose inhibition condition, FIG. 7, without arctigenin 88.80%) was 27.50%, the “cellular survival rate (PI staining)” value ([3]; glucose-containing condition, 24 hours, FIG. 6, without arctigenin 78.20%) was 69.50% and the “cellular survival rate (PI staining)” value ([3]; glucose-containing condition, FIG. 7, without arctigenin 84.70%) was 83.30%. For the same molecule, the “ratio of CD44+ESA+CD24+ cell in all analyzed cells” value ([4]; 4 μM arctigenin, glucose inhibition condition, without arctigenin 1.40%) was 0.24%, the “ratio of CD44+ESA+CD24+ cell analyzed in viable cells” value (“ratio of CD44+ESA+CD24+ cell analyzed” for short) ([4]; 4 μM arctigenin, glucose inhibition condition, without arctigenin 1.77%) was 0.50% and the “number of the survival of CD44+ESA+CD24+ cell” value (from here on “number … of CD44+ESA+CD24+ cell”) ([4]; 4 μM arctigenin, glucose inhibition condition, without arctigenin 105) was 18. The “ratio of CD44+ESA+CD24+ cell in all analyzed cells” value ([4]; 4 μM arctigenin, glucose-containing condition, without arctigenin 0.87%) was 1.04%, the “ratio of CD44+ESA+CD24+ cell analyzed” value ([4]; 4 μM arctigenin, glucose-containing condition, without arctigenin 1.28%) was 1.43% and the “number … of CD44+ESA+CD24+ cell” value ([4]; 4 μM arctigenin, glucose-containing condition, without arctigenin 65) was 78. For the same molecule, the “antitumor effect (size of subcutaneous tumor mass)” value [5] was “antitumor effect was also obtained”, the “cellular survival rate (PI staining)” value ([6]; 4 μM arctigenin, glucose inhibition condition (15 mM 2-DG), without arctigenin 79.10%) was 48.73% and the “cellular survival rate (PI staining)” value ([6]; 4 μM arctigenin, glucose-containing condition, without arctigenin 67.57%) was 72.80%. The “cancel the viability of tumor cells under undernutrition condition” value [7] was “effective”, the “ratio of CD44+ESA+CD24+ cell in all analyzed cells” value ([8]; glucose inhibition condition, without arctigenin 6.51%) was 0.98% and the “number … of CD44+ESA+CD24+ cell” value ([8]; glucose inhibition condition, without arctigenin 651) was 98. The “ratio of CD44+ESA+CD24+ cell in all analyzed cells” value ([8]; glucose-containing condition, without arctigenin 4.41%) was 5.01%, the “number … of CD44+ESA+CD24+ cell” value ([8]; glucose-containing condition, without arctigenin 441) was 501 and the “positive ratio of CD44+,c-MetHigh cell in all analyzed cells” value ([9]; glucose inhibition condition, without arctigenin 0.78%) was 0.22%. The “number of the survival of CD44+,c-MetHigh cell” value ([9]; glucose inhibition condition, without arctigenin 47) was 13, the “positive ratio of CD44+,c-MetHigh cell in all analyzed cells” value ([9]; glucose-containing condition, without arctigenin 0.63%) was 0.52% and the “number of the survival of CD44+,c-MetHigh cell” value ([9]; glucose-containing condition, without arctigenin 38) was 31.

In the case of `COc1ccc(C[C@H]2COC(=O)[C@@H]2Cc2ccc(O[C@@H]3O[C@H](CO)[C@@H](O)[C@H](O)[C@H]3O)c(OC)c2)cc1OC` [arctiin], the solubility in water [1] is listed as “hardly soluble”.

For `N.N.[Cl][Pt][Cl]` [cisplatin, reference compound], the “number … of CD44+ESA+CD24+ cell” value ([4]; 7 μM cisplatin treatment) was 88, the “ratio of CD44+ESA+CD24+ cell analyzed” value ([4]; 7 μM cisplatin treatment) was 2.02% and the “ratio of CD44+ESA+CD24+ cell in all analyzed cells” value ([4]; 7 μM cisplatin treatment) was 1.17%. For the same molecule, the “cellular survival rate (PI staining)” value ([6]; 7 μM cisplatin) was 58.08%.
